48 compounds from patent US20050101595A1, “N-containing cycloalkyl-substituted amino-thiazole derivatives and pharmaceutical compositions for inhibiting cell proliferation and methods for their use” (PFIZER INC., priority 2003, published 2005) can be followed below.

Structures can show the parent of a compound that is named as a salt.

Usually IC50 stands for the point on the concentration scale where inhibition reaches its midpoint. As a reminder, the inhibition is the drop in the measured response relative to a control, in per cent.

For one assay, the system named is HCT-116 cell line. The assay can be described thus: Inhibition of cell growth, tetrazolium salt (MTT) assay. Type of assay: cell-based. Conditions: HCT116 cells; compound at 250 nM. Here is the method:
Inhibition of Cell Growth: Assessment of Cytotoxicity:
Inhibition of cell growth was measured using the tetrazolium salt assay, which is based on the ability of viable cells to reduce 3-(4,5-dimethylthiazol-2-yl)-2,5-[2H]-diphenyltetrazolium bromide (MTT) to formazan (Mossman, Journal of Immunological Methods, vol. 65 (1983), pp. 55-58). The water-insoluble purple formazan product was then detected spectrophotometrically. The HCT-116 cell line was used as a representative cancer cell line and grown in 96-well plates. Cells were plated in McCoy's 5A Medium at a volume of 135 μl/well. Plates were incubated for four hours before addition of inhibitor compounds. Different concentrations of inhibitor compounds were added in 0.5% (v/v) dimethylsulfoxide (15 μLuwell), and cells were incubated at 37° C. (5% CO2) for three to five days. At the end of the incubation, MTT was added to a final concentration of 0.2 mg/mL, and cells were incubated for 4 hours more at 37° C. After centrifugation of the plates and removal of medium, the absorbance of the formazan (solubilized in dimethylsulfoxide) was measured at 540 nm. […] All results were compared to control cells treated only with 0.5% (v/v) dimethylsulfoxide.
`CC1CCCC(NCCS(=O)(=O)N2CCC(Nc3nc(N)c(C(=O)c4c(F)cccc4F)s3)CC2)C1` (mixture of isomers) [Example S57]: the “% Inhibition HCT116 @ 250 nM” value is recorded as 73%.
Still for that read-out and setting: to `CC1CCCN1CCS(=O)(=O)N1CCC(Nc2nc(N)c(C(=O)c3c(F)cccc3F)s2)CC1` (racemic) [Example S40] belongs 93%.

The assay is the same for the next values; noted with them: Homo sapiens, HCT-116, 120 h, first HCT-116 column (c4); MTT, three to five days; read-out: HCT-116 IC50.
On to `CN(C)CC#Cc1ccc(S(=O)(=O)N2CCC(Nc3nc(N)c(C(=O)c4c(F)cccc4F)s3)CC2)cc1` [Example I9, 1-(4-Amino-2-{1-[4-(3-dimethylamino-prop-1-ynyl)-benzenesulfonyl]-piperidin-4-ylamino}-thiazol-5-yl)-1-(2,6-difluoro-phenyl)-methanone D-Glucuronic Acid Salt], for which the half-inhibitory concentration (IC50) was determined as 100 nM.
Still for that read-out and setting: then `C[C@H](NCCS(=O)(=O)N1CCC(Nc2nc(N)c(C(=O)c3c(F)cccc3F)s2)CC1)c1ccccc1` [Example K47], with 100 nM; and `Nc1nc(NC2CCN(S(=O)(=O)CCNCc3ccccc3)CC2)sc1C(=O)c1c(F)cccc1F` [Example K48], with 170 nM.
On to `CC(C)(NCCS(=O)(=O)N1CCC(Nc2nc(N)c(C(=O)c3c(F)cccc3F)s2)CC1)c1ccccc1` [Example K49, (4-Amino-2-{1-[2-(1-methyl-1-phenyl-ethylamino)-ethanesulfonyl]-piperidin-4-ylamino}-thiazol-5-yl)-(2,6-difluoro-phenyl)-methanone], for which the IC50 is 180 nM.
On the same count and under the same terms, then `Nc1nc(NC2CCN(S(=O)(=O)CCNCc3c(F)cccc3F)CC2)sc1C(=O)c1c(F)cccc1F` [Example K50, (4-Amino-2-{1-[2-(2,6-difluoro-benzylamino)-ethanesulfonyl]-piperidin-4-ylamino}-thiazol-5-yl)-(2,6-difluoro-phenyl)-methanone], with 200 nM; and `CC(C)(C)CNCCS(=O)(=O)N1CCC(Nc2nc(N)c(C(=O)c3c(F)cccc3F)s2)CC1` [Example K51, (4-Amino-2-{1-[2-(2,2-dimethyl-propylamino)-ethanesulfonyl]-piperidin-4-ylamino}-thiazol-5-yl)-(2,6-difluoro-phenyl)-methanone], with 170 nM.
The same measure, in the same setting: then `Nc1nc(NC2CCN(S(=O)(=O)CCNCc3cccc(Cl)c3)CC2)sc1C(=O)c1c(F)cccc1F` [Example K52, (4-Amino-2-{1-[2-(3-chloro-benzylamino)-ethanesulfonyl]-piperidin-4-ylamino}-thiazol-5-yl)-(2,6-difluoro-phenyl)-methanone], with 110 nM; and `Nc1nc(NC2CCN(S(=O)(=O)CCN(Cc3ccccc3)CC3CC3)CC2)sc1C(=O)c1c(F)cccc1F` [Example K53, (4-Amino-2-{1-[2-(benzyl-cyclopropylmethyl-amino)-ethanesulfonyl]-piperidin-4-ylamino}-thiazol-5-yl)-(2,6-difluoro-phenyl)-methanone], with 230 nM.

Staying with this assay, now noted: Homo sapiens, HCT-116, 120 h, second HCT-116 column (c5); MTT, three to five days; read-out: HCT-116 IC50.
For `CN(C)CC#Cc1ccc(S(=O)(=O)N2CCC(Nc3nc(N)c(C(=O)c4c(F)cccc4F)s3)CC2)cc1` [Example I9, 1-(4-Amino-2-{1-[4-(3-dimethylamino-prop-1-ynyl)-benzenesulfonyl]-piperidin-4-ylamino}-thiazol-5-yl)-1-(2,6-difluoro-phenyl)-methanone D-Glucuronic Acid Salt], the IC50 was 500 nM.
Still for that read-out and setting: to `C[C@H](NCCS(=O)(=O)N1CCC(Nc2nc(N)c(C(=O)c3c(F)cccc3F)s2)CC1)c1ccccc1` [Example K47] belongs 250 nM; to `Nc1nc(NC2CCN(S(=O)(=O)CCNCc3ccccc3)CC2)sc1C(=O)c1c(F)cccc1F` [Example K48], 500 nM.
On the same count and under the same terms, to `CC(C)(NCCS(=O)(=O)N1CCC(Nc2nc(N)c(C(=O)c3c(F)cccc3F)s2)CC1)c1ccccc1` [Example K49, (4-Amino-2-{1-[2-(1-methyl-1-phenyl-ethylamino)-ethanesulfonyl]-piperidin-4-ylamino}-thiazol-5-yl)-(2,6-difluoro-phenyl)-methanone] belongs 500 nM; to `Nc1nc(NC2CCN(S(=O)(=O)CCNCc3c(F)cccc3F)CC2)sc1C(=O)c1c(F)cccc1F` [Example K50, (4-Amino-2-{1-[2-(2,6-difluoro-benzylamino)-ethanesulfonyl]-piperidin-4-ylamino}-thiazol-5-yl)-(2,6-difluoro-phenyl)-methanone], 500 nM.
On to `CC(C)(C)CNCCS(=O)(=O)N1CCC(Nc2nc(N)c(C(=O)c3c(F)cccc3F)s2)CC1` [Example K51, (4-Amino-2-{1-[2-(2,2-dimethyl-propylamino)-ethanesulfonyl]-piperidin-4-ylamino}-thiazol-5-yl)-(2,6-difluoro-phenyl)-methanone], for which the IC50 worked out at 500 nM.
On the same count and under the same terms, to `Nc1nc(NC2CCN(S(=O)(=O)CCNCc3cccc(Cl)c3)CC2)sc1C(=O)c1c(F)cccc1F` [Example K52, (4-Amino-2-{1-[2-(3-chloro-benzylamino)-ethanesulfonyl]-piperidin-4-ylamino}-thiazol-5-yl)-(2,6-difluoro-phenyl)-methanone] belongs 250 nM.
Same read-out and setting: to `Nc1nc(NC2CCN(S(=O)(=O)CCN(Cc3ccccc3)CC3CC3)CC2)sc1C(=O)c1c(F)cccc1F` [Example K53, (4-Amino-2-{1-[2-(benzyl-cyclopropylmethyl-amino)-ethanesulfonyl]-piperidin-4-ylamino}-thiazol-5-yl)-(2,6-difluoro-phenyl)-methanone] belongs 560 nM.

The assay is the same for the next values; noted with them: Homo sapiens, HCT-116, HCT116 cells; compound at 250 nM; read-out: % Inhibition HCT116 @ 250 nM.
In the case of `CCCN(CCS(=O)(=O)N1CCC(Nc2nc(N)c(C(=O)c3c(F)cccc3F)s2)CC1)CC1CC1` [Example S1], the inhibition at 0.25 µM was determined as 36%.
Regarding `CCCCN(CC#N)CCS(=O)(=O)N1CCC(Nc2nc(N)c(C(=O)c3c(F)cccc3F)s2)CC1` [Example S2], the inhibition at 0.25 µM turned out to be 18%.
On the same count and under the same terms, then `CC(C)(C)N(CCO)CCS(=O)(=O)N1CCC(Nc2nc(N)c(C(=O)c3c(F)cccc3F)s2)CC1` [Example S3], with 25%; and `CN(CCO)CCS(=O)(=O)N1CCC(Nc2nc(N)c(C(=O)c3c(F)cccc3F)s2)CC1` [Example S4], with 25%.
Same read-out and setting: to `CCN(CCO)CCS(=O)(=O)N1CCC(Nc2nc(N)c(C(=O)c3c(F)cccc3F)s2)CC1` [Example S5] belongs 26%.
In the case of `Nc1nc(NC2CCN(S(=O)(=O)CCN(CCO)CCO)CC2)sc1C(=O)c1c(F)cccc1F` [Example S6], the inhibition at 0.25 µM stood at 13%.
Take `Nc1nc(NC2CCN(S(=O)(=O)CCN3CCCCCC3)CC2)sc1C(=O)c1c(F)cccc1F` [Example S7]: the inhibition at 0.25 µM is 22%.
Still for that read-out and setting: then `CC(C)N(CCS(=O)(=O)N1CCC(Nc2nc(N)c(C(=O)c3c(F)cccc3F)s2)CC1)C1CCCCC1` [Example S8], with 91%; and `CN(CCS(=O)(=O)N1CCC(Nc2nc(N)c(C(=O)c3c(F)cccc3F)s2)CC1)C1CCCCC1` [Example S9], with 43%.
On the same count and under the same terms, then `CCN(CCS(=O)(=O)N1CCC(Nc2nc(N)c(C(=O)c3c(F)cccc3F)s2)CC1)C1CCCCC1` [Example S10], with 62%; and `CC(O)CN(CCS(=O)(=O)N1CCC(Nc2nc(N)c(C(=O)c3c(F)cccc3F)s2)CC1)CC(C)O` (centres unmarked) [Example S11], with 13%; and `NC(=O)C1CCCN(CCS(=O)(=O)N2CCC(Nc3nc(N)c(C(=O)c4c(F)cccc4F)s3)CC2)C1` (centres unmarked) [Example S12], with 19%.
Same read-out and setting: then `Nc1nc(NC2CCN(S(=O)(=O)CCN3CCCCC3CO)CC2)sc1C(=O)c1c(F)cccc1F` (centres unmarked) [Example S13], with 24%; and `CC1CCCC(C)N1CCS(=O)(=O)N1CCC(Nc2nc(N)c(C(=O)c3c(F)cccc3F)s2)CC1` (centres unmarked) [Example S14], with 91%.
Take `CC1CCCCN1CCS(=O)(=O)N1CCC(Nc2nc(N)c(C(=O)c3c(F)cccc3F)s2)CC1` (centres unmarked) [Example S15]: the inhibition at 0.25 µM was determined as 46%.
The same measure, in the same setting: to `CC1CN(CCS(=O)(=O)N2CCC(Nc3nc(N)c(C(=O)c4c(F)cccc4F)s3)CC2)CC(C)O1` (centres unmarked) [Example S16] belongs 20%; to `Nc1nc(NC2CCN(S(=O)(=O)CCN3CCN(C=O)CC3)CC2)sc1C(=O)c1c(F)cccc1F` [Example S17], 19%; to `Nc1nc(NC2CCN(S(=O)(=O)CCN3CCC(O)C3)CC2)sc1C(=O)c1c(F)cccc1F` (centres unmarked) [Example S18], 14%.
In the case of `Nc1nc(NC2CCN(S(=O)(=O)CCN3CCC[C@H]3CO)CC2)sc1C(=O)c1c(F)cccc1F` [Example S19], the inhibition at 0.25 µM is 15%.
The same measure, in the same setting: then `NC(=O)[C@@H]1CCCN1CCS(=O)(=O)N1CCC(Nc2nc(N)c(C(=O)c3c(F)cccc3F)s2)CC1` [Example S20], with 18%; and `Nc1nc(NC2CCN(S(=O)(=O)CCN3CCCC3)CC2)sc1C(=O)c1c(F)cccc1F` [Example S21], with 35%; and `Nc1nc(NC2CCN(S(=O)(=O)CCN3CCSC3)CC2)sc1C(=O)c1c(F)cccc1F` [Example S22], with 18%.
Still for that read-out and setting: to `Nc1nc(NC2CCN(S(=O)(=O)CCN3CCCC(CO)C3)CC2)sc1C(=O)c1c(F)cccc1F` (centres unmarked) [Example S23] belongs 18%.
For the compound `Nc1nc(NC2CCN(S(=O)(=O)CCN3CCC(O)CC3)CC2)sc1C(=O)c1c(F)cccc1F` [Example S24], the inhibition at 0.25 µM was determined as 14%.
Still for that read-out and setting: then `Nc1nc(NC2CCN(S(=O)(=O)CCN3CCC(CCO)CC3)CC2)sc1C(=O)c1c(F)cccc1F` [Example S25], with 10%.
Still for that read-out and setting: to `CN(CCc1ccccn1)CCS(=O)(=O)N1CCC(Nc2nc(N)c(C(=O)c3c(F)cccc3F)s2)CC1` [Example S26] belongs 17%; to `Nc1nc(NC2CCN(S(=O)(=O)CCN3CCc4ccccc4C3)CC2)sc1C(=O)c1c(F)cccc1F` [Example S27], 27%.
On the same count and under the same terms, then `CN(CCS(=O)(=O)N1CCC(Nc2nc(N)c(C(=O)c3c(F)cccc3F)s2)CC1)Cc1ccccc1` [Example S28], with 80%; and `CN(CCc1ccccc1)CCS(=O)(=O)N1CCC(Nc2nc(N)c(C(=O)c3c(F)cccc3F)s2)CC1` [Example S29], with 18%.
Turning to `COC(CN(C)CCS(=O)(=O)N1CCC(Nc2nc(N)c(C(=O)c3c(F)cccc3F)s2)CC1)OC` [Example S30], the inhibition at 0.25 µM turned out to be 18%.
Same read-out and setting: to `C=CCN(C)CCS(=O)(=O)N1CCC(Nc2nc(N)c(C(=O)c3c(F)cccc3F)s2)CC1` [Example S31] belongs 27%.
On the same count and under the same terms, then `C=CCN(CC=C)CCS(=O)(=O)N1CCC(Nc2nc(N)c(C(=O)c3c(F)cccc3F)s2)CC1` [Example S32], with 69%.
Still for that read-out and setting: then `CC(C)N(CCS(=O)(=O)N1CCC(Nc2nc(N)c(C(=O)c3c(F)cccc3F)s2)CC1)C(C)C` [Example S33], with 79%; and `CN(CCS(=O)(=O)N1CCC(Nc2nc(N)c(C(=O)c3c(F)cccc3F)s2)CC1)Cc1cccnc1` [Example S34], with 21%; and `CCN(CCS(=O)(=O)N1CCC(Nc2nc(N)c(C(=O)c3c(F)cccc3F)s2)CC1)CC(C)(C)O` [Example S35], with 58%.
With `CCCCN(CCO)CCS(=O)(=O)N1CCC(Nc2nc(N)c(C(=O)c3c(F)cccc3F)s2)CC1` [Example S36], the inhibition at 0.25 µM turned out to be 17%.
Still for that read-out and setting: to `CCCCN(CCC#N)CCS(=O)(=O)N1CCC(Nc2nc(N)c(C(=O)c3c(F)cccc3F)s2)CC1` [Example S37] belongs 24%.
Same read-out and setting: to `CC(C)CN(C)CCS(=O)(=O)N1CCC(Nc2nc(N)c(C(=O)c3c(F)cccc3F)s2)CC1` [Example S38] belongs 55%.
